Reference: patent US20210380548A1, “Fused [1,2,4]Thiadiazine Derivatives Which Act as KAT Inhibitors of the MYST Family” (CTxT Pty Limited, priority 2017, published 2021)
pIC50: −log10 of the molar value.

How the values were obtained:
MOZ-KAT6A = target: T1, MOZ-KAT6A (Homo sapiens, UniProt Q92794, A567V); test: Revised Acetyltransferase Biochemical Assay, KAT6A; conditions: Table 8 (MOZ-KAT6A), 1 μM Acetyl coenzyme A
T1 construct: encoding amino acid residues 507 to 778 (Uniprot Q92794-1) of human KAT6A; made in house; host or cells: E. coli BL21 DE3
T1 sequence (Q92794 507-778 A567V limits assumed): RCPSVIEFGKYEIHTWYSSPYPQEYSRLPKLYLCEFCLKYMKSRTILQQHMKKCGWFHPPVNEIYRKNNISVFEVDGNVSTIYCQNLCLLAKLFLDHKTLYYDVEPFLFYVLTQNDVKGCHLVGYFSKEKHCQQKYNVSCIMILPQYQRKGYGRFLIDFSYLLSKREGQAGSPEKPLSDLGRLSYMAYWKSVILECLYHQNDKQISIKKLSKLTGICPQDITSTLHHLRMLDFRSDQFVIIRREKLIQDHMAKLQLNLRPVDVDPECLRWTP

TIP60-KAT5 [1] = target: T2, TIP60-KAT5 (Homo sapiens, UniProt Q92993); test: Revised Acetyltransferase Biochemical Assay, KAT5; conditions: 10 nM KAT5, 1 μM AcCoA, 100 nM histone H4, 90 min
T2 construct: encoding amino acid residues 2 to 461 (Uniprot Q92993-2) of human KAT5 isoform; made in house; host or cells: E. coli BL21 DE3
T2 sequence (Q92993 2-461 isoform Q92993-2): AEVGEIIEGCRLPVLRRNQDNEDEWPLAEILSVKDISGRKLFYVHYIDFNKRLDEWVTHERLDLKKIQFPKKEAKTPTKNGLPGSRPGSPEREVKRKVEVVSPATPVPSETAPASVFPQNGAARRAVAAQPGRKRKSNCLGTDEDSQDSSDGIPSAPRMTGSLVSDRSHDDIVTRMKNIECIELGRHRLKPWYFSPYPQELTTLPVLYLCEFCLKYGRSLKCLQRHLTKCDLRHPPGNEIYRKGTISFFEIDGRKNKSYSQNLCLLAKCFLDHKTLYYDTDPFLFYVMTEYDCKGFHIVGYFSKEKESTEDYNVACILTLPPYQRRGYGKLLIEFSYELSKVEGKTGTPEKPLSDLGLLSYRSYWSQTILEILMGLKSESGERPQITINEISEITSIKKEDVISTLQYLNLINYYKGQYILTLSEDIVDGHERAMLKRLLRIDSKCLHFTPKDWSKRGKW

TIP60-KAT5 [2] = target: T2, TIP60-KAT5; test: Acetyltransferase biochemical assay (AlphaScreen), KAT5; conditions: Table 1 (TIP60-KAT5); 0.4 μM Acetyl coenzyme A, histone H4, 10 nM enzyme
HBO-KAT7 [3] = target: T3, HBO-KAT7 (Homo sapiens, UniProt O95251); test: Revised Acetyltransferase Biochemical Assay, KAT7; conditions: Table 9 (HBO-KAT7), 1 μM Acetyl coenzyme A
T3 construct: encoding amino acid residues 325 to 611 (Uniprot 095251-1) of human KAT7; made in house; host or cells: E. coli BL21 DE3 RIL
T3 sequence (O95251 with tags, fused parts or gaps): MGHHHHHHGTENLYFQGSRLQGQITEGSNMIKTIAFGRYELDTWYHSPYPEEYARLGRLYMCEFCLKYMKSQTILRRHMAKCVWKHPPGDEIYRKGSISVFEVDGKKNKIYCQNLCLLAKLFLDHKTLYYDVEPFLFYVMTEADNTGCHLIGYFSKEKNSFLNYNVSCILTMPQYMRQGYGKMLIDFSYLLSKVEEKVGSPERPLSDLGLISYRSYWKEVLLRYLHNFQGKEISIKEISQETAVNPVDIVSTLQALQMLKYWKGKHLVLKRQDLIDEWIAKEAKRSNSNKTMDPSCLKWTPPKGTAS

HBO-KAT7 [4] = target: T3, HBO-KAT7; test: Acetyltransferase biochemical assay (AlphaScreen), KAT7; conditions: Table 3 (HBO-KAT7); 0.4 μM Acetyl coenzyme A, histone H3.1, 40 nM enzyme

Structure (SMILES)	pIC50 (MOZ-KAT6A)	pIC50 (TIP60-KAT5 [1])	pIC50 (TIP60-KAT5 [2])	pIC50 (HBO-KAT7 [3])	pIC50 (HBO-KAT7 [4])
Cc1ncccc1-c1ccccc1CCNC(=O)C1=Nc2ccccc2S(=O)(=O)N1 [Example 6, N-(2-(2-Methylpyridin-3-yl)phenethyl)-2H-benzo[e][1,2,4]thiadiazine-3-carboxamide 1,1-dioxide]	4.73	< 3.90	4.05	4.67	
O=C(NCCc1ccccc1C(=O)O)C1=Nc2ccccc2S(=O)(=O)N1 [Example 30, 2-(2-(1,1-Dioxido-2H-benzo[e][1,2,4]thiadiazine-3-carboxamido)ethyl)benzoic Acid]			3.95		
Cn1cc(-c2ccccc2CCNC(=O)C2=Nc3ccccc3S(=O)(=O)N2)cn1 [Example 40, N-(2-(1-methyl-1H-pyrazol-4-yl)phenethyl)-2H-benzo[e][1,2,4]thiadiazine-3-carboxamide 1,1-dioxide]			< 3.90		5.02
C#Cc1ccc2c(c1)S(=O)(=O)NC(C(=O)NCC(c1ccccc1)c1ncco1)=N2 (stereo not shown) [Example 42, 7-ethynyl-N-(2-(oxazol-2-yl)-2-phenylethyl)-2H-benzo[e][1,2,4]thiadiazine-3-carboxamide 1,1-dioxide]			6.19		6.59
O=C(NCC(C(=O)N1CCCC1)c1ccccc1)C1=Nc2ccccc2S(=O)(=O)N1 (stereo not shown) [Example 44, N-(3-oxo-2-phenyl-3-(pyrrolidin-1-yl)propyl)-2H-benzo[e][1,2,4]thiadiazine-3-carboxamide 1,1-dioxide]			< 3.90		
CC(C)OC(=O)NC(CNC(=O)C1=Nc2ccccc2S(=O)(=O)N1)c1ccccc1 (stereo not shown) [Example 50, Isopropyl (2-(1,1-dioxido-2H-benzo[e][1,2,4]thiadiazine-3-carboxamido)-1-phenylethyl) carbamate]	5.21	< 3.90		4.31	
CCOC(=O)C(CNC(=O)C1=Nc2ccccc2S(=O)(=O)N1)c1ccccc1 (stereo not shown) [Example 73, ethyl 3-(1,1-dioxido-2H-benzo[e][1,2,4]thiadiazine-3-carboxamido)-2-phenylpropanoate]			5.00		4.58
O=C(NCCc1ccc(CO)cc1)C1=Nc2ccc(I)cc2S(=O)(=O)N1 [Example 103]			< 3.90		< 3.90
O=C(NCCc1ccncc1)C1=Nc2ccc(I)cc2S(=O)(=O)N1 [Example 104]			< 3.90		< 3.90
O=C(NCCc1ccc(O)cc1)C1=Nc2ccc(I)cc2S(=O)(=O)N1 [Example 105]			4.33		< 3.90
COc1ccc(CCNC(=O)C2=Nc3ccc(I)cc3S(=O)(=O)N2)cc1 [Example 106]			< 3.90		< 3.90
CNC(=O)c1ccccc1CCNC(=O)C1=Nc2ccc(I)cc2S(=O)(=O)N1 [Example 110]			4.12		4.00
CN(C)C(=O)c1ccccc1CCNC(=O)C1=Nc2ccc(I)cc2S(=O)(=O)N1 [Example 111]			4.78		4.09
O=C(NCC(O)c1ccccc1OCc1ccccc1)C1=Nc2ccc(I)cc2S(=O)(=O)N1 (stereo not shown) [Example 119]			5.28		4.73
O=C(NCCc1ccccc1-n1ccnc1)C1=Nc2ccc(I)cc2S(=O)(=O)N1 [Example 192]	6.21	4.95		5.64	
COCc1ccccc1C(CNC(=O)C1=Nc2ccccc2S(=O)(=O)N1)c1ncco1 (stereo not shown) [Example 194]	5.25	≤ 3.90		4.58	
O=C(NCCc1ccccc1-c1n[nH]c(=O)o1)C1=Nc2ccccc2S(=O)(=O)N1 [Example 195]	6.68	5.73		5.65	
O=C(NCC(O)C1CCCCC1)C1=Nc2ccc(Cl)cc2S(=O)(=O)N1 (stereo not shown) [Example 200]	5.01	< 3.90		< 3.90	
O=C(NCC1(c2ccccc2)CCCC1)C1=Nc2ccccc2S(=O)(=O)N1 [Example 205]	6.01	4.52		5.56	
CC(N)c1ccc2c(c1)S(=O)(=O)NC(C(=O)NCC(c1ccccc1)c1ncco1)=N2 (stereo not shown) [Example 208, 7-(1-Aminoethyl)-N-(2-(oxazol-2-yl)-2-phenylethyl)-2H-benzo[e][1,2,4]thiadiazine-3-carboxamide 1,1-dioxide]	5.80	4.88		5.35	
CNC(C)c1ccc2c(c1)S(=O)(=O)NC(C(=O)NCC(c1ccccc1)c1ncco1)=N2 (stereo not shown) [Example 209, 7-(1-(Methylamino)ethyl)-N-(2-(oxazol-2-yl)-2-phenylethyl)-2H-benzo[e][1,2,4]thiadiazine-3-carboxamide 1,1-dioxide]	6.42	5.07		5.78	
CC(NS(C)(=O)=O)c1ccc2c(c1)S(=O)(=O)NC(C(=O)NCC(c1ccccc1)c1ncco1)=N2 (stereo not shown) [Example 210, 7-(1-(Methylsulfonamido)ethyl)-N-(2-(oxazol-2-yl)-2-phenylethyl)-2H-benzo[e][1,2,4]thiadiazine-3-carboxamide 1,1-dioxide]	6.52	4.96		5.95	
CC(=O)NC(C)c1ccc2c(c1)S(=O)(=O)NC(C(=O)NCC(c1ccccc1)c1ncco1)=N2 (stereo not shown) [Example 211, 7-(1-Acetamidoethyl)-N-(2-(oxazol-2-yl)-2-phenylethyl)-2H-benzo[e][1,2,4]thiadiazine-3-carboxamide 1,1-dioxide]	5.66	4.61		5.22	
COc1ccc2c(c1)S(=O)(=O)NC(C(=O)NCC(c1cccc(Cl)c1)c1ncco1)=N2 (stereo not shown) [Example 223, N-(2-(3-Chlorophenyl)-2-(oxazol-2-yl)ethyl)-7-methoxy-2H-benzo[e][1,2,4]thiadiazine-3-carboxamide 1,1-dioxide]	6.67	5.48		6.00	
O=C(NCC(c1cccc(Cl)c1)c1ncco1)C1=Nc2ccc(O)cc2S(=O)(=O)N1 (stereo not shown) [Example 224, N-(2-(3-chlorophenyl)-2-(oxazol-2-yl)ethyl)-7-hydroxy-2H-benzo[e][1,2,4]thiadiazine-3-carboxamide 1,1-dioxide]	6.78	5.05		6.69	
NC(=O)c1ccccc1CCNC(=O)C1=Nc2ccc(I)cc2S(=O)(=O)N1 [Example 230, N-(2-Carbamoylphenethyl)-7-iodo-2H-benzo[e][1,2,4]thiadiazine-3-carboxamide 1,1-dioxide]	6.12	5.31		5.64	
O=C(NCC1(c2ncco2)CCCC1)C1=Nc2ccccc2S(=O)(=O)N1 [Example 242, N-((1-(oxazol-2-yl)cyclopentyl)methyl)-2H-benzo[e][1,2,4]thiadiazine-3-carboxamide 1,1-dioxide]	5.56	3.91		4.48	

Results, then the compound that gave them:

pIC50 (MOZ-KAT6A)	pIC50 (TIP60-KAT5 [1])	pIC50 (TIP60-KAT5 [2])	pIC50 (HBO-KAT7 [3])	pIC50 (HBO-KAT7 [4])	Structure (SMILES)
5.99	5.86	5.50	5.44		COc1ccccc1C(O)CNC(=O)C1=Nc2ccc(I)cc2S(=O)(=O)N1 (single isomer, unassigned) [Example 150]
		5.59		5.80	COC(CNC(=O)C1=Nc2ccc(I)cc2S(=O)(=O)N1)c1ccccc1OC(F)F (stereo not shown) [Example 58, N-(2-(2-(difluoromethoxy)phenyl)-2-methoxyethyl)-7-iodo-2H-benzo[e][1,2,4]thiadiazine-3-carboxamide 1,1-dioxide]
		5.69		5.47	O=C(NCC(O)c1ccccc1F)C1=Nc2ccc(I)cc2S(=O)(=O)N1 (stereo not shown) [Example 89]
		6.02		6.04	O=C(NCCc1ccccc1O)C1=Nc2ccc(I)cc2S(=O)(=O)N1 [Example 90]
		5.55		5.42	COc1ccccc1C(O)CNC(=O)C1=Nc2ccc(I)cc2S(=O)(=O)N1 (stereo not shown) [Example 94]
		5.29		5.37	O=C(NCC(O)c1ccccc1C(F)(F)F)C1=Nc2ccc(I)cc2S(=O)(=O)N1 (stereo not shown) [Example 95]
		5.47		5.23	O=C(NCCc1ccccc1CO)C1=Nc2ccc(I)cc2S(=O)(=O)N1 [Example 109, N-(2-(hydroxymethyl)phenethyl)-7-iodo-2H-benzo[e][1,2,4]thiadiazine-3-carboxamide 1,1-dioxide]
		4.39		4.33	COc1cccc(C(O)CNC(=O)C2=Nc3ccc(I)cc3S(=O)(=O)N2)c1 (stereo not shown) [Example 121]
		5.30		5.76	O=C(NCC(F)c1ccccc1)C1=Nc2ccc(I)cc2S(=O)(=O)N1 (stereo not shown) [Example 123]
		4.61		4.73	O=C(NCC(O)c1cccc(Cl)c1)C1=Nc2ccc(I)cc2S(=O)(=O)N1 (stereo not shown) [Example 124]
		< 3.90		< 3.90	O=C(NCC(O)c1ccc(Cl)cc1)C1=Nc2ccc(I)cc2S(=O)(=O)N1 (stereo not shown) [Example 125]
		4.50		4.91	O=C(NCC(O)c1cccc(F)c1)C1=Nc2ccc(I)cc2S(=O)(=O)N1 (stereo not shown) [Example 126]
6.23	5.57		5.02		O=C(NCCc1ccccc1C(=O)O)C1=Nc2ccc(I)cc2S(=O)(=O)N1 [Example 155, 2-(2-(7-Iodo-1,1-dioxido-2H-benzo[e][1,2,4]thiadiazine-3-carboxamido)ethyl)benzoic Acid]
7.38	6.00		6.58		O=C(NCC(c1ccccc1)c1nnc(C(F)F)o1)C1=Nc2ccc(I)cc2S(=O)(=O)N1 (stereo not shown) [Example 185]
